According to BigSolDB 2.1:

COC(=O)CC[C@H](N)C(=O)O
solubility (mole fraction)
Conditions | 283.15 K | 288.15 K | 293.15 K | 298.15 K | 303.15 K | 308.15 K | 313.15 K | 318.15 K | 323.15 K
in acetone | 5.18e-05 | 9.7e-05 | 0.000148 | 0.000221 | 0.000292 | 0.000377 | 0.000438 | 0.000516 | 0.000572
in ethanol | 0.000116 | 0.000147 | 0.000177 | 0.000212 | 0.000245 | 0.000272 | 0.000307 | 0.000348 | 0.000383
in isopropanol | 8.34e-05 | 0.000104 | 0.000124 | 0.000144 | 0.000166 | 0.000196 | 0.000217 | 0.000245 | 0.000272
in methanol | 0.00115 | 0.00122 | 0.0013 | 0.00138 | 0.00145 | 0.00152 | 0.00161 | 0.0017 | 0.00179
in n-propanol | 1.38e-05 | 4.22e-05 | 7.7e-05 | 0.000116 | 0.000154 | 0.000208 | 0.000246 | 0.000289 | 0.000336
in water | 0.0337 | 0.036 | 0.0394 | 0.0426 | 0.0457 | 0.0489 | 0.0523 | 0.0565 | 0.0608
